Experimental data published in US20200085838A1, “METHODS OF TREATING EPILEPSY AND NEURODEVELOPMENTAL DISORDERS” (Praxis Precision Medicines, Inc., priority 2017, published 2020).

What was measured:
Type in all cases: cell-based
[1] = target: T1, human K905N Nav1.2 (Homo sapiens, UniProt Q99250, K905N); experiment: Whole-cell patch clamp of sodium currents (INa) in CHO cells transiently expressing K905N Nav1.2; settings: K905N Nav1.2, CHO cells, mean±SEM
T1 construct: expressed in transfected cells; host or cells: CHO cells
T1 sequence (Q99250 whole entry K905N): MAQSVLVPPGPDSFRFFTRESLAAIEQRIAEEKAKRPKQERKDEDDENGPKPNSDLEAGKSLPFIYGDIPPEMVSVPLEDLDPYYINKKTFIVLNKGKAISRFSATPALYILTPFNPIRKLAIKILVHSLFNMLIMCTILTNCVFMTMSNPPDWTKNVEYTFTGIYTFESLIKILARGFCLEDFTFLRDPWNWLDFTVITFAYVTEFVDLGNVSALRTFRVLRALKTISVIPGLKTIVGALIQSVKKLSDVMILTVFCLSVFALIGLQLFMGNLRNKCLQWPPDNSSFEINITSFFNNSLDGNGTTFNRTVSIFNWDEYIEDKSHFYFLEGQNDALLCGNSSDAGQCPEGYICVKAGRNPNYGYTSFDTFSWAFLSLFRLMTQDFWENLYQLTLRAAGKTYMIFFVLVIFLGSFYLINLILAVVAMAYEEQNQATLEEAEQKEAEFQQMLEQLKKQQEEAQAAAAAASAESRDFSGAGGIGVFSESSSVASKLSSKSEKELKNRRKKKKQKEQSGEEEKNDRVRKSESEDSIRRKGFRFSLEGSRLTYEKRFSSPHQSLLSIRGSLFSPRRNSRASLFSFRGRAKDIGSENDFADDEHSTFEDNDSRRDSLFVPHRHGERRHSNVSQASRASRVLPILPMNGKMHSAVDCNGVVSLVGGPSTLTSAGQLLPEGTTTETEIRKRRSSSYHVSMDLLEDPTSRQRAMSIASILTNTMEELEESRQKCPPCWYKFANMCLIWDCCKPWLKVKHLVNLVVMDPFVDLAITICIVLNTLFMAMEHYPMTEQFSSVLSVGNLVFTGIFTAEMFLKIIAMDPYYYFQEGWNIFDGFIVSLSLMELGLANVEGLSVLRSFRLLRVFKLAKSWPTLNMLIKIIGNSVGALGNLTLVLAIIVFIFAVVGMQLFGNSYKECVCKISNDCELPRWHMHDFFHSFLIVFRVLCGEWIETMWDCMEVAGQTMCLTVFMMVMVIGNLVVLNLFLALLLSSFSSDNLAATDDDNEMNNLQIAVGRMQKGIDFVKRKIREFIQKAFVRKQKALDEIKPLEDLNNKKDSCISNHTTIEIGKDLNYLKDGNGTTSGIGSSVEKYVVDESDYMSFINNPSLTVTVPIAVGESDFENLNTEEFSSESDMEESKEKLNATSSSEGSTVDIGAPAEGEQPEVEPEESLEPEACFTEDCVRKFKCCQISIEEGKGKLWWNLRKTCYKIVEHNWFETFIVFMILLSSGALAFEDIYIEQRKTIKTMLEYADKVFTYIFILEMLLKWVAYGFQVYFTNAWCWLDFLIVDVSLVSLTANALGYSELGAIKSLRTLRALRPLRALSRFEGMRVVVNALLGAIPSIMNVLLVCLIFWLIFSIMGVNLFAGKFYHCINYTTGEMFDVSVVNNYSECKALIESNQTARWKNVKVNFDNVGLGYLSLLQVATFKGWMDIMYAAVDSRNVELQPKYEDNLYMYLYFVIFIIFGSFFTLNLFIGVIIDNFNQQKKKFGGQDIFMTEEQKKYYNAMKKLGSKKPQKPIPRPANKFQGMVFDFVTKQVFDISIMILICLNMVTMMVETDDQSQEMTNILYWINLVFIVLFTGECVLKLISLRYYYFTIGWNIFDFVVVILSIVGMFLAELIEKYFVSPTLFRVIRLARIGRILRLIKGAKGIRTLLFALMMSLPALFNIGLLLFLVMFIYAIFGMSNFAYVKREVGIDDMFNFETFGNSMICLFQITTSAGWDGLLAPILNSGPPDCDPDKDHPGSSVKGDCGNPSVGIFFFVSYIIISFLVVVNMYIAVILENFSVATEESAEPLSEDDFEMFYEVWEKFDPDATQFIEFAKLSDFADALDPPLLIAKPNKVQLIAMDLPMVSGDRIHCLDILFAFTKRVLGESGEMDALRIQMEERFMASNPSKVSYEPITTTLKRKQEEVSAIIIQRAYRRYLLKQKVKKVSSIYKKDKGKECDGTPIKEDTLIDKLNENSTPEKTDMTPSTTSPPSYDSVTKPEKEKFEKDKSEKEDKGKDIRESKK

[2] = target: T2, human R1882Q Nav1.2 (Homo sapiens, UniProt Q99250, R1882Q); experiment: Whole-cell patch clamp of sodium currents (INa) in CHO cells transiently expressing R1882Q Nav1.2; settings: R1882Q Nav1.2, CHO cells, mean±SEM
T2 construct: expressed in transfected cells; host or cells: CHO cells
T2 sequence (Q99250 whole entry R1882Q): as the sequence (Q99250 whole entry K905N) above, with N905K, R1882Q counted along it

[3] = target: T3, human wild-type (WT) Nav1.2 (Homo sapiens, UniProt Q99250); experiment: Whole-cell patch clamp of sodium currents (INa) in CHO cells transiently expressing wild-type Nav1.2; settings: WT Nav1.2, CHO cells, mean±SEM
T3 construct: expressed in transfected cells; host or cells: CHO cells
T3 sequence (Q99250 whole entry): as the sequence (Q99250 whole entry K905N) above, with N905K counted along it

- Hill slope Late INa ([1]; late INa at 100 ms): 0.55 ± 0.06
- Hill slope Peak INa ([1]; peak INa): 0.78 ± 0.2
- Hill slope Late INa ([2]; late INa at 100 ms): 0.64 ± 0.2
- Hill slope Peak INa ([2]; peak INa): 0.36 ± 0.14
- Hill slope Late INa ([3]; late INa at 100 ms, INaL enhanced with 3 nM ATX-II): 0.94 ± 0.06
- Hill slope Peak INa ([3]; peak INa): 0.63 ± 0.07
Compound: O=C1c2cc(-c3ccc(OC(F)(F)F)cc3)ccc2OCCN1Cc1ncccn1 [eleclazine, 4-(pyrimidin-2-ylmethyl)-7-(4-(trifluoromethoxy)phenyl)-3,4-dihydrobenzo[f][1,4]oxazepin-5(2H)-one]
